The results in this text go back to patent EP0294695A2, “New polyoxygenated labdane derivatives, a process for their preparation, and their use as medicaments” (HOECHST AKTIENGESELLSCHAFT, priority 1987, dated 1988).

The assay can be described thus: reduction of intraocular pressure. Format: in vivo. As to conditions: 2% strength solution of the test compound; for Duration: duration of the decrease in intraocular pressure. The text has this:
The results of investigations into the reduction of intraocular pressure by some typical compounds of the formula I, according to the invention, are listed in Table 2. The results are expressed as the percentage decrease in the intraocular pressure when a 2% strength solution of the test compound is used.

Take `C=C[C@@]1(C)CC(=O)[C@]2(O)[C@@]3(C)[C@@H](OC(=O)Nc4ccccc4)CCC(C)(C)[C@@H]3[C@H](O)[C@H](OC(=O)Nc3ccccc3)[C@@]2(C)O1` [Compound 1]: the “Decrease in intraocular pressure(%)” value was determined as 18% and the Duration was 5 h.
For `C=C[C@@]1(C)CC(=O)[C@]2(O)[C@@]3(C)[C@@H](O)CCC(C)(C)[C@@H]3[C@H](O)[C@H](OC(=O)NC)[C@@]2(C)O1` [Compound 2, 8,13-Epoxy-7β-methylaminocarbonyloxy-1α,6β,9α-trihydroxylabd-14-en-11-one], the “Decrease in intraocular pressure(%)” value is recorded as 23% and the Duration worked out at 5 h.
Regarding `C=C[C@@]1(C)CC(=O)[C@]2(O)[C@@]3(C)[C@@H](O)CCC(C)(C)[C@@H]3[C@H](O)[C@H](OC(=O)NC(C)C)[C@@]2(C)O1` [Compound 3, 7β-isopropylaminocarbonyloxy-8,13-epoxy-1α,6β,9α-trihydroxylabd-14-en-11-one], the “Decrease in intraocular pressure(%)” value is recorded as 34% and the Duration was found to be 6 h.
`C=C[C@@]1(C)CC(=O)[C@]2(O)[C@@]3(C)[C@@H](O)CCC(C)(C)[C@@H]3[C@H](O)[C@H](OC(=O)NC(C)(C)C)[C@@]2(C)O1` [Compound 4, 7β-t-Butylaminocarbonyloxy-8,13-epoxy-1α,6β9α-trihydroxylabd-14-en-11-one]: the “Decrease in intraocular pressure(%)” value was 21% and the Duration is 6 h.
